Test results as given in BigSolDB 2.1.

CC(C)C(=O)Nc1ccc([N+](=O)[O-])c(C(F)(F)F)c1
solubility (mole fraction)
Details	278.15 K	283.15 K	288.15 K	293.15 K	298.15 K	303.15 K	308.15 K	313.15 K	318.15 K	323.15 K
in 2-ethoxyethanol	0.132	0.142	0.153	0.164	0.176	0.19	0.204	0.22	0.237	0.258
in 2-methoxyethanol	0.121	0.13	0.142	0.153	0.166	0.18	0.195	0.212	0.229	0.25
in DMF	0.382	0.391	0.401	0.41	0.421	0.433	0.447	0.462	0.476	0.494
in DMSO	–	–	–	0.433	0.443	0.455	0.469	0.481	0.496	0.512
in acetone	0.162	0.173	0.185	0.196	0.209	0.223	0.238	0.255	0.273	0.293
in dichloromethane	0.00732	0.00924	0.0117	0.0143	0.0182	0.0223	0.0273	–	–	–
in ethanol	0.0336	0.0406	0.0503	0.0586	0.0699	0.083	0.0979	0.116	0.135	0.158
in ethyl acetate	0.0998	0.109	0.119	0.131	0.143	0.156	0.17	0.187	0.205	0.225
in ethylene glycol	0.00089	0.00116	0.0015	0.00195	0.00241	0.00308	0.0039	0.00491	0.0061	0.00758
in methanol	0.0296	0.0362	0.0446	0.0532	0.065	0.078	0.0933	0.11	0.131	0.153
in methyl acetate	0.0945	0.103	0.113	0.123	0.135	0.144	0.16	0.175	0.192	0.21
